# Legend:
# [1] = tested on: novel coronavirus (live coronavirus), vero cells; assay: In-vitro live virus neutralization experiment with serum of immunized mice (CPE method); assay type: in vivo, SARS-CoV-2; settings: Embodiment I: single peptide 100 μg + MF59 at Day 0, 14, 28, Balb/c mice, serum Day 35
# [2] = tested on: Balb/c mice; assay: Polypeptide chip-based vaccine immunogenicity scoring system; assay type: in vivo; set-up: key to A2: whether the 95 percentile of the last sampling is increased compared with the end point: Y = rise; N = no rise; settings: for A: 95 percentile grouping number score / B: Mouse performance score: total score = 5
# [3] = Embodiment III, polypeptide-KLH
# [4] = Embodiment III, polypeptide-KLH, Mix1-10
# [5] = Embodiment III, polypeptide-KLH, value of the whole mix
# [6] = adjuvant AddaVax, 7 peptides co-immunized in mice
# [7] = adjuvant Adju-Phos, 7 peptides co-immunized in mice
# [8] = adjuvant Alhydrogel, 7 peptides co-immunized in mice
# [9] = adjuvant Imjet Alumn, 7 peptides co-immunized in mice
# [10] = adjuvant MA103A, 7 peptides co-immunized in mice
# [11] = adjuvant MA103B, 7 peptides co-immunized in mice
sequence,measurement,setting,value
VYDPLQPEL (SARS-CoV-2) [SEQ ID NO:34],Neutralizing antibody positive rate (%),[1],20%
same,A2: whether the 95 percentile of the last sampling is increased compared with the end point,"[2]; Embodiment II, Combination 1",N
same,B1: D 0-D 14 95 percentile rise in the number of mice,"[2]; Embodiment II, Combination 1",5
same,B2: D 0-D 21 95 percentile rise in the number of mice,"[2]; Embodiment II, Combination 1",0
same,B3: D 14-D 21 95 percentile rise in the number of mice,"[2]; Embodiment II, Combination 1",0
same,B4: D 21-D 28 95 percentile rise in the number of mice,"[2]; Embodiment II, Combination 1",1
same,Total single peptide,"[2]; Embodiment II, Combination 1, A*3 + B*2 + C*1",18.9
same,A: 95 percentile grouping number score,"[2]; Embodiment II, Combination 1",5
same,B: Mouse performance score,"[2]; Embodiment II, Combination 1",1.7
same,A1: difference between a highest median and a D 0 median (95 percentile),"[2]; Embodiment II, mice immunized with Combination 1",0.21
same,B1: D 0-D 14 95 percentile rise in the number of mice,[2]; [3],3
same,B2: D 0-D 21 95 percentile rise in the number of mice,[2]; [3],3
same,B3: D 14-D 21 95 percentile rise in the number of mice,[2]; [3],1
same,B4: D 21-D 28 95 percentile rise in the number of mice,[2]; [3],0
same,A1: difference between a highest median and a D 0 median (95 percentile),[2]; [4],0.08
same,A2: whether the 95 percentile of the last sampling is increased compared with the end point,[2]; [4],N
same,Total single peptide,"[2]; Embodiment III, polypeptide-KLH, A*3 + B*2 + C*1",13.4
same,A: 95 percentile grouping number score,[2]; [3],3
same,B: Mouse performance score,[2]; [3],1.7
same,C1: #A timing-sequence response peptide fragment set,[2]; [5],823
same,C2: #B vaccine specificity peptide fragment set,[2]; [5],398
same,C3: Intersection of A and B,[2]; [5],7
same,C4: Percentage of the intersection in set B,[2]; [5],1.759
same,C: Timing-sequence response and specificity score,[2]; [5],1
same,1) 95 percentile grouping number A,[2]; [6],3.5
same,1) 95 percentile grouping number A1,[2]; [6],0.05
same,2) Mouse performance B,[2]; [6],2.4
same,2) Mouse performance B1,[2]; [6],4
same,2) Mouse performance B2,[2]; [6],4
same,2) Mouse performance B3,[2]; [6],1
same,3) Timing-sequence response and specificity C,[2]; [6],0
same,3) Timing-sequence response and specificity C1,[2]; [6],237
same,3) Timing-sequence response and specificity C2,[2]; [6],1244
same,3) Timing-sequence response and specificity C3,[2]; [6],0
same,3) Timing-sequence response and specificity C4,[2]; [6],0.000
same,Total single peptide,[2]; [6],15.3
same,1) 95 percentile grouping number A,[2]; [7],5
same,1) 95 percentile grouping number A1,[2]; [7],0.08
same,2) Mouse performance B,[2]; [7],2.5
same,2) Mouse performance B1,[2]; [7],3
same,2) Mouse performance B2,[2]; [7],4
same,2) Mouse performance B3,[2]; [7],2
same,3) Timing-sequence response and specificity C,[2]; [7],0
same,3) Timing-sequence response and specificity C1,[2]; [7],203
same,3) Timing-sequence response and specificity C2,[2]; [7],1244
same,3) Timing-sequence response and specificity C3,[2]; [7],0
same,3) Timing-sequence response and specificity C4,[2]; [7],0.000
same,Total single peptide,[2]; [7],20
same,1) 95 percentile grouping number A,[2]; [8],5
same,1) 95 percentile grouping number A1,[2]; [8],0.06
same,2) Mouse performance B,[2]; [8],2.6
same,2) Mouse performance B1,[2]; [8],4
same,2) Mouse performance B2,[2]; [8],3
same,2) Mouse performance B3,[2]; [8],2
same,3) Timing-sequence response and specificity C,[2]; [8],1
same,3) Timing-sequence response and specificity C1,[2]; [8],123
same,3) Timing-sequence response and specificity C2,[2]; [8],1244
same,3) Timing-sequence response and specificity C3,[2]; [8],2
same,3) Timing-sequence response and specificity C4,[2]; [8],0.161
same,Total single peptide,[2]; [8],20.7
same,1) 95 percentile grouping number A,[2]; [9],5
same,1) 95 percentile grouping number A1,[2]; [9],0.11
same,2) Mouse performance B,[2]; [9],2.1
same,2) Mouse performance B1,[2]; [9],5
same,2) Mouse performance B2,[2]; [9],3
same,2) Mouse performance B3,[2]; [9],0
same,3) Timing-sequence response and specificity C,[2]; [9],1
same,3) Timing-sequence response and specificity C1,[2]; [9],100
same,3) Timing-sequence response and specificity C2,[2]; [9],1244
same,3) Timing-sequence response and specificity C3,[2]; [9],3
same,3) Timing-sequence response and specificity C4,[2]; [9],0.241
same,Total single peptide,[2]; [9],19.7
same,1) 95 percentile grouping number A,[2]; [10],5
same,1) 95 percentile grouping number A1,[2]; [10],0.115
same,2) Mouse performance B,[2]; [10],2.5
same,2) Mouse performance B1,[2]; [10],5
same,2) Mouse performance B2,[2]; [10],5
same,2) Mouse performance B3,[2]; [10],0
same,3) Timing-sequence response and specificity C,[2]; [10],1
same,3) Timing-sequence response and specificity C1,[2]; [10],260
same,3) Timing-sequence response and specificity C2,[2]; [10],1244
same,3) Timing-sequence response and specificity C3,[2]; [10],3
same,3) Timing-sequence response and specificity C4,[2]; [10],0.241
same,Total single peptide,[2]; [10],20.5
same,1) 95 percentile grouping number A,[2]; [11],5
same,1) 95 percentile grouping number A1,[2]; [11],0.095
same,2) Mouse performance B,[2]; [11],4.2
same,2) Mouse performance B1,[2]; [11],4
same,2) Mouse performance B2,[2]; [11],5
same,2) Mouse performance B3,[2]; [11],5
same,3) Timing-sequence response and specificity C,[2]; [11],0
same,3) Timing-sequence response and specificity C1,[2]; [11],153
same,3) Timing-sequence response and specificity C2,[2]; [11],1244
same,3) Timing-sequence response and specificity C3,[2]; [11],0
same,3) Timing-sequence response and specificity C4,[2]; [11],0.000
same,Total single peptide,[2]; [11],23.4

# — patent US20230136600A1, “Method and device for screening antigen epitope polypeptide” (priority 2020, published 2023)
